Data reported in patent publication US10669268B2, “Bicyclic derivatives” (Hoffmann-La Roche Inc., priority 2012, dated 2020).

Biological target: ATX (human His-tagged) (Homo sapiens (Human), UniProt Q13822)
Assay: Human ATX enzyme inhibition assay (fluorescence quenching, MR121 substrate)
Type: biochemical
Details: 30 nM ATX, 1 μM MR121 substrate, 30° C., pH 8.0
Procedure: Human ATX Enzyme Inhibition Assay
Assay working solutions were made as follows:
Assay buffer (50 mM Tris-HCl, 140 mM NaCl, 5 mM KCl, 1 mM CaCl2, 1 mM MgCl2, 0.01% Triton-X-100, pH 8.0;
MR121 substrate solution: MR121 substrate stock solution (800 μM MR121 substrate in DMSO), diluted to 2-5× final concentration in assay buffer.
10 μL of MR121 substrate solution was added (1 μM final concentration), mixed 30 times and then incubated for 15 minutes at 30° C.

IC50 [µM] | Compound
0.01 | O=C(c1ccc(-c2ccc(Cl)cc2)cc1)N1C[C@H]2CN(C(=O)c3ccc4[nH]nnc4c3)C[C@@H]2C1 (stereo in doubt) [Example 19.13, (1H-benzotriazol-5-yl)-[(3aS,6aS)-5-(4′-chloro-biphenyl-4-carbonyl)-hexahydro-pyrrolo[3,4-c]pyrrol-2-yl]-methanone]
0.01 | O=C(/C=C/c1ccc(OC(F)(F)F)cc1)N1C[C@@H]2CN(C(=O)c3ccc4[nH]nnc4c3)C[C@H]2C1 [Example 15.24]
2.02 | O=C(c1ccc2[nH]nnc2c1)N1C[C@@H]2CN(C(=O)c3cc4ccc(Cl)cc4[nH]3)C[C@@H]2C1 [Example 15.04]
0.05 | N#Cc1cccc(/C=C/C(=O)N2CC[C@@H]3CN(C(=O)c4ccc5[nH]nnc5c4)C[C@@H]3CC2)c1 [Example 15.38]
0.011 | CS(=O)(=O)c1cc(Cl)cc(COC(=O)N2C[C@@H]3CN(C(=O)c4ccc5[nH]nnc5c4)C[C@H]3C2)c1 [Example 4.03, (3aS,6aS)-5-(1H-benzotriazole-5-carbonyl)-hexahydro-pyrrolo[3,4-c]pyrrole-2-carboxylic acid 3-chloro-5-methanesulfonyl-benzyl ester]
0.008 | O=C(/C=C/c1ccc(SC(F)(F)F)cc1)N1CC[C@@H]2CN(C(=O)c3ccc4[nH]nnc4c3)C[C@@H]2CC1 [Example 15.69, (E)-1-((3aR,8aS)-2-(1H-benzo[d][1,2,3]triazole-5-carbonyl)octahydropyrrolo[3,4-d]azepin-6(7H)-yl)-3-(4-(trifluoromethylthio)phenyl)prop-2-en-1-one]
3.48 | O=C(OCc1cccc(C(O)C(F)(F)F)c1)N1C[C@@H]2CN(C(=O)c3ccc4[nH]nnc4c3)C[C@@H]2C1 (stereo partly drawn) [Example 4.21, cis-5-(1H-benzotriazole-5-carbonyl)-hexahydro-pyrrolo[3,4-c]pyrrole-2-carboxylic acid 3-(2,2,2-trifluoro-1-hydroxy-ethyl)-benzyl ester]
0.114 | O=C(CCc1ccc(OC(F)(F)F)cc1)N1C[C@@H]2CN(C(=O)c3ccc4[nH]nnc4c3)C[C@@H]2C1 [Example 15.13]
0.282 | O=C(CCc1cc(Cl)cc(Cl)c1)N1C[C@H]2CN(Cc3ccc4[nH]c(=O)oc4c3)C[C@H]2C1 [Example 6.04]
1.9 | O=C(COc1ccccc1)N1C[C@@H]2CN(C(=O)c3ccc4[nH]nnc4c3)C[C@H]2C1 [Example 15.95]
0.015 | CCOc1cc(C(=O)N2C[C@@H]3CN(C(=O)c4ccc5[nH]nnc5c4)C[C@H]3C2)nc2ccccc12 [Example 19.37, ((3aS,6aS)-5-(1H-benzo[d][1,2,3]triazole-5-carbonyl)hexahydropyrrolo[3,4-c]pyrrol-2(1H)-yl)(4-ethoxyquinolin-2-yl)methanone]
0.019 | CS(=O)(=O)c1cc(Cl)cc(COC(=O)N2C[C@@H]3CN(C(=O)N4CCc5[nH]nnc5C4)C[C@H]3C2)c1 [Example 4.34, (3aS,6aS)-5-(1,4,6,7-tetrahydro-[1,2,3]triazolo[4,5-c]pyridine-5-carbonyl)-hexahydro-pyrrolo[3,4-c]pyrrole-2-carboxylic acid 3-chloro-5-methanesulfonyl-benzyl ester]
1.04 | CN(Cc1cnn[nH]1)C(=O)N1C[C@H]2CN(C(=O)CCc3ccc(OC(F)(F)F)cc3)C[C@H]2C1 [Example 15.60]
0.008 | O=C(OCc1ccc(OC(F)(F)F)cc1)N1C[C@@H]2CN(C(=O)c3ccc4[nH]c(=O)oc4c3)C[C@H]2C1 [Example 2.04, (3aS,6aS)-5-(2-oxo-2,3-dihydro-benzooxazole-6-carbonyl)-hexahydro-pyrrolo[3,4-c]pyrrole-2-carboxylic acid 4-trifluoromethoxy-benzyl ester]
0.011 | CS(=O)(=O)c1cc(COC(=O)N2CC[C@@H]3CN(C(=O)c4ccc5[nH]nnc5c4)C[C@@H]3CC2)cc(C(F)(F)F)c1 [Example 4.05, (3aS,8aR)-2-(1H-benzotriazole-5-carbonyl)-octahydro-pyrrolo[3,4-d]azepine-6-carboxylic acid 3-methanesulfonyl-5-trifluoromethyl-benzyl ester]
0.021 | Cc1ccc(/C=C/C(=O)N2CC[C@@H]3CN(C(=O)c4ccc5[nH]nnc5c4)C[C@@H]3CC2)cc1 [Example 15.07]
0.249 | O=C(COc1ccccc1-n1cccc1)N1C[C@@H]2CN(C(=O)c3ccc4[nH]nnc4c3)C[C@H]2C1 [Example 15.92]

Further lines, the molecule ahead of its results:

Compound | IC50 [µM]
O=C(OCc1cc(Cl)cc(Cl)c1)N1C[C@@H]2CN(C(=O)C3CCc4[nH]nnc4C3)C[C@@H]2C1 (stereo partly drawn) [Example 1.13, (3aR,6aS)-3,5-dichlorobenzyl 5-(4,5,6,7-tetrahydro-1H-benzo[d][1,2,3]triazole-5-carbonyl)hexahydropyrrolo[3,4-c]pyrrole-2(1H)-carboxylate] | 0.226
O=C(OCc1cc(Cl)cc(Cl)c1)N1C[C@@H]2CN(C(=O)N3CCc4[nH]nnc4C3)C[C@@H]2C1 [Example 8, (3aR,6aS)-3,5-dichlorobenzyl 5-(4,5,6,7-tetrahydro-1H-[1,2,3]triazolo[4,5-c]pyridine-5-carbonyl)hexahydropyrrolo[3,4-c]pyrrole-2(1H)-carboxylate] | 0.108
O=C(CCc1ccc(OCC(F)(F)F)cc1F)N1CC[C@@H]2CN(C(=O)c3ccc4[nH]nnc4c3)C[C@@H]2CC1 [Example 1.45, 1-[(3aS,8aR)-2-(1H-benzotriazole-5-carbonyl)-1,3,3a,4,5,7,8,8a-octahydropyrrolo[3,4-d]azepin-6-yl]-3-[2-fluoro-4-(2,2,2-trifluoroethoxy)phenyl]propan-1-one] | 0.007
O=C(OCc1cc(Cl)cc(Cl)c1)N1C[C@@H]2CN(C(=O)c3ccc4[nH]nnc4c3)C[C@@H]2C1 [Example 1.03, (3aR,6aS)-3,5-dichlorobenzyl 5-(1H-benzo[d][1,2,3]triazole-5-carbonyl)hexahydropyrrolo[3,4-c]pyrrole-2(1H)-carboxylate] | 0.025
O=C(OCc1cc(Cl)cc(Cl)c1)N1C[C@@H]2CN(C(=O)c3ccc4[nH]ccc4c3)C[C@@H]2C1 [Example 1.05, (3aR,6aS)-3,5-dichlorobenzyl 5-(1H-indole-5-carbonyl)hexahydropyrrolo[3,4-c]pyrrole-2(1H)-carboxylate] | 0.09
COc1cc(OC(F)(F)F)ccc1COC(=O)N1CC[C@@H]2CN(C(=O)c3ccc4[nH]nnc4c3)C[C@H]2C1 (relative stereo) [Example 1.33, trans-2-(1H-benzotriazole-5-carbonyl)-octahydro-pyrrolo[3,4-c]pyridine-5-carboxylic acid 2-methoxy-4-trifluoromethoxy-benzyl ester] | 0.021
O=C(COc1ccccc1OC(F)(F)F)N1CC[C@@H]2CN(C(=O)c3ccc4[nH]nnc4c3)C[C@@H]2CC1 [Example 1.32, 1-[(3aS,8aR)-2-(1H-benzotriazole-5-carbonyl)-octahydro-pyrrolo[3,4-d]azepin-6-yl]-2-(2-trifluoromethoxy-phenoxy)-ethanone] | 0.04
O=C(c1ccc2[nH]nnc2c1)N1C[C@H]2CN(C(=O)N3CCC(c4ccc(Cl)cc4)CC3)C[C@@H]2C1 [Example 20, (1H-Benzotriazol-5-yl)-{(3aS,6aS)-5-[4-(4-chloro-phenyl)-piperidine-1-carbonyl]-hexahydro-pyrrolo[3,4-c]pyrrol-2-yl}-methanone] | 0.029
